In patent US12133855B2, “Lipid-like nanocomplexes and uses thereof” (Trustees of Tufts College, priority 2018, dated 2024):
Read-outs that look alike come from different tables or passages of the source.

Assays:
Format in all cases: cell-based
HeLa-DsRed cells [1] = conditions: for cell morphology (bright field images) vs untreated cells / mean fluorescence intensity of treated cells: [lipidoid]=6.6 μg mL^−1, [(−30)GFP-Cre]=100 nM; for green fluorescence signals (fluorescent images): protein/nanoparticle treated HeLa-DsRed cells
Procedure: The internalization kinetics and efficiencies of OCholB LNPs were then studied using NR loaded LNPs and HeLa cells. […] Next, all of the NR delivery efficiencies of eight OCholB LNPs were determined after 8 h of exposure. […] Representative fluorescent images of NR/LNPs (NR/75-OCholB, NR/76-OCholB and NR/77-OCholB) treated HeLa cells are shown in FIG. 12D, from which it is easily observed that NR was delivered into the cells and mainly distributed in cytoplasm, by OCholB LNPs. Next, the internalization of negatively charged hydrophilic fluorescent dye, calcein, was studied. […] Next, the use of OCholB LNPs for the intracellular delivery of macromolecular cargo was explored, using fluorescent recombinant (−30)GFP-Cre protein and HeLa-DsRed cells as the model system. […] Delivery efficiency was tested at a range of (−30)GFP-Cre protein concentrations (25, 50 and 100 nM), with a consistent lipid/protein ratio (i.e., delivery with the final lipid concentration of 1.7, 3.3, and 6.6 μg mL^−1 respectively). 33.2%, 43.8% and 74% of GFP positive (GFP^+) cells were recorded for (−30)GFP-Cre/Lpf2k treated cells with the concentration of (−30)GFP-Cre 25 nM, 50 nM and 100 nM, respectively. […] The typical flow cytometry profiles of naked (−30)GFP-Cre protein and (−30)GFP-Cre loaded nanoparticles ((−30)GFP-Cre/75-OCholB, (−30)GFP-Cre/76-OCholB, (−30)GFP-Cre/77-OCholB and (−30)GFP-Cre/Lpf2k) treated HeLa-DsRed cells were shown in and FIG. 12H ([lipidoid]=6.6 μg mL^−1 and [(−30)GFP-Cre]=100 nM), which is consistent with the statistical results shown in FIG. 12G. Furthermore, the representative fluorescent images from the protein and protein/nanoparticle treated HeLa-DsRed cells are also shown in FIG. 12I.

HeLa-DsRed cells [2] = conditions: for cell viability: 8 h exposure, MTT after 24 h; for cell morphology changes: bright field images
Procedure: All experiments were performed in quadruplicate.
In this context, the internalization mechanism of the (−30)GFP-Cre/LNPs complexes was studied at first, by introducing different endocytosis inhibitors, i.e., sucrose (clathrin-mediated endocytosis inhibitor), methyl-β-cyclodextrin (M-β-CD, cholesterol-depleting agent), dynasore (dynamin II inhibitor) and nystatin (caveolin-mediated endocytosis inhibitor), following our previously reported procedures. […] Comparing to other combinatorial library studies, it is clear that even loaded with same cargoes and tested against same cell line, different lipidoids with different chemical structures could be internalized through very distinct pathways. Next, the genome-editing efficiencies of (−30)GFP-Cre/LNPs were determined by flow cytometry after 24 h of incubation (with 8 h of (−30)GFP-Cre/LNPs complex exposure). Three different concentrations of protein/lipidoid complexes (25 nM/1.7 μg mL^−1, 50 nM/3.4 μg mL^−1, and 100 nM/6.6 μg mL^−1) were tested for each lipidoid nanoparticle. […] For example, the DsRed^+ cells were recorded as 10.5%/24.9%/88.9%, 13.5%/55.4%/88.8%, and 27.7%/47.8%/94.7% for (−30)GFP-Cre loaded 75-OCholB, 76-OCholB and 77-OCholB, respectively, at the protein concentration of 25, 50 and 100 nM. […] Then, the cytotoxicity profiles of (−30)GFP-Cre/LNPs, (−30)GFP-Cre/Lpf2k and naked (−30)GFP-Cre at different concentrations against HeLa-DsRed cells (8 h of exposure; (−30)GFP-Cre/LNPs=25 nM/1.7 μg mL^−1, 50 nM/3.4 μg mL^−1, and 100 nM/6.6 μg mL^−1) are measured using MTT assay after 24 h of incubation. […] For (−30)GFP-Cre/75-OCholB treated cells, the viabilities were determined to be 95.5%, 91.8% and 83.1%, at the protein concentration of 25, 50 and 100 nM, respectively; the numbers for (−30)GFP-Cre/76-OCholB and (−30)GFP-Cre/77-OCholB are 97.8%/98.2%/97.2 and 100.9%/96.6%/98.6%. […] Meanwhile, the morphology changes of HeLa-DsRed cell treated with different nanoparticle formulations were studied and the results are shown in FIG. 15E. […] Samples found in upper left quadrant are non-toxic and inefficient for delivery; samples in lower left quadrant are toxic and inefficient; samples in lower right quadrant are efficient but toxic; samples in upper right quadrant are non-toxic and efficient, which would be top candidates for further study. It is clear that Lpf2k (shown in dotted purple circle) at high concentration is relatively efficient for genome editing, while also toxic to the target cells. On the other hand, most of the (−30)GFP-Cre loaded OCholB LNPs are almost non-toxic when compared to (−30)GFP-Cre/Lpf2k, similar to naked (−30)GFP-Cre protein. 87-OCholB, 90-OCholB and 304-OCholB (shown in dotted dark blue circle) are less efficient for genome-editing; while high genome editing efficacy and excellent tolerability were achieved by using 75-OCholB, 76-OCholB and 77-OCholB (shown in dotted green circle).

HeLa-DsRed cells [3] = test: Internalization mechanism study with endocytosis inhibitors; conditions: [lipidoid]=6.6 μg mL^−1, [(−30)GFP-Cre]=100 nM; 6 h
From the text: In this context, the internalization mechanism of the (−30)GFP-Cre/LNPs complexes was studied at first, by introducing different endocytosis inhibitors, i.e., sucrose (clathrin-mediated endocytosis inhibitor), methyl-β-cyclodextrin (M-β-CD, cholesterol-depleting agent), dynasore (dynamin II inhibitor) and nystatin (caveolin-mediated endocytosis inhibitor), following our previously reported procedures. […] Comparing to other combinatorial library studies, it is clear that even loaded with same cargoes and tested against same cell line, different lipidoids with different chemical structures could be internalized through very distinct pathways. Next, the genome-editing efficiencies of (−30)GFP-Cre/LNPs were determined by flow cytometry after 24 h of incubation (with 8 h of (−30)GFP-Cre/LNPs complex exposure). Three different concentrations of protein/lipidoid complexes (25 nM/1.7 μg mL^−1, 50 nM/3.4 μg mL^−1, and 100 nM/6.6 μg mL^−1) were tested for each lipidoid nanoparticle. […] For example, the DsRed^+ cells were recorded as 10.5%/24.9%/88.9%, 13.5%/55.4%/88.8%, and 27.7%/47.8%/94.7% for (−30)GFP-Cre loaded 75-OCholB, 76-OCholB and 77-OCholB, respectively, at the protein concentration of 25, 50 and 100 nM. […] Then, the cytotoxicity profiles of (−30)GFP-Cre/LNPs, (−30)GFP-Cre/Lpf2k and naked (−30)GFP-Cre at different concentrations against HeLa-DsRed cells (8 h of exposure; (−30)GFP-Cre/LNPs=25 nM/1.7 μg mL^−1, 50 nM/3.4 μg mL^−1, and 100 nM/6.6 μg mL^−1) are measured using MTT assay after 24 h of incubation. […] For (−30)GFP-Cre/75-OCholB treated cells, the viabilities were determined to be 95.5%, 91.8% and 83.1%, at the protein concentration of 25, 50 and 100 nM, respectively; the numbers for (−30)GFP-Cre/76-OCholB and (−30)GFP-Cre/77-OCholB are 97.8%/98.2%/97.2 and 100.9%/96.6%/98.6%. […] Meanwhile, the morphology changes of HeLa-DsRed cell treated with different nanoparticle formulations were studied and the results are shown in FIG. 15E. […]

[4] = (−30)GFP-Cre 25 nM, lipid 1.7 μg mL^−1
[5] = (−30)GFP-Cre 50 nM, lipid 3.3 μg mL^−1
[6] = (−30)GFP-Cre 100 nM, lipid 6.6 μg mL^−1
[7] = (−30)GFP-Cre 25 nM/1.7 μg mL^−1
[8] = (−30)GFP-Cre 50 nM/3.4 μg mL^−1
[9] = (−30)GFP-Cre 100 nM/6.6 μg mL^−1

CC(C)CCCC(C)C1CCC2C3CC=C4CC(OC(=O)NCCSSCCOC(=O)CCN(CCC(=O)OCCSSCCNC(=O)OC5CCC6(C)C(=CCC7C6CCC6(C)C(C(C)CCCC(C)C)CCC76)C5)CCC5CCCN5C)CCC4(C)C3CCC12C (stereo not shown) [Lipidoid 77-OCholB]
GFP positive (GFP^+) cells (HeLa-DsRed cells [1]; [4]): 66.4% | GFP positive (GFP^+) cells (HeLa-DsRed cells [1]; [5]): 90.7% | GFP positive (GFP^+) cells (HeLa-DsRed cells [1]; [6]): 97.9% | cell morphology (bright field images) vs untreated cells (HeLa-DsRed cells [1]): no evident morphological change | mean fluorescence intensity of treated cells (HeLa-DsRed cells [1]): much more efficient than others | green fluorescence signals (fluorescent images) (HeLa-DsRed cells [1]): Strong green fluorescence signals | cell viability (HeLa-DsRed cells [2]; [7]): 100.9% | cell viability (HeLa-DsRed cells [2]; [8]): 96.6% | cell viability (HeLa-DsRed cells [2]; [9]): 98.6% | cell morphology changes (HeLa-DsRed cells [2]): less affected | internalization efficiency with endocytosis inhibitors (HeLa-DsRed cells [3]): significantly suppressed by sucrose and dynasore

CC(C)CCCC(C)C1CCC2C3CC=C4CC(OC(=O)NCCSSCCOC(=O)CCN(CCCN(C)C)CCC(=O)OCCSSCCNC(=O)OC5CCC6(C)C(=CCC7C6CCC6(C)C(C(C)CCCC(C)C)CCC76)C5)CCC4(C)C3CCC12C (stereo not shown) [Lipidoid 80-OCholB]
GFP positive (GFP^+) cells (HeLa-DsRed cells [1]; [4]): 54.7% | GFP positive (GFP^+) cells (HeLa-DsRed cells [1]; [5]): 88.9% | GFP positive (GFP^+) cells (HeLa-DsRed cells [1]; [6]): 97.0% | mean fluorescence intensity of treated cells (HeLa-DsRed cells [1]): much more efficient than others

CC(C)CCCC(C)C1CCC2C3CC=C4CC(OC(=O)NCCSSCCOC(=O)CCN(CCC(=O)OCCSSCCNC(=O)OC5CCC6(C)C(=CCC7C6CCC6(C)C(C(C)CCCC(C)C)CCC76)C5)CCN(C)C)CCC4(C)C3CCC12C (stereo not shown) [Lipidoid 78-OCholB]
GFP positive (GFP^+) cells (HeLa-DsRed cells [1]; [5]): 46.1% | GFP positive (GFP^+) cells (HeLa-DsRed cells [1]; [6]): 90.1%

CCN(CC)CCCN(CCC(=O)OCCSSCCNC(=O)OC1CCC2(C)C(=CCC3C2CCC2(C)C(C(C)CCCC(C)C)CCC32)C1)CCC(=O)OCCSSCCNC(=O)OC1CCC2(C)C(=CCC3C2CCC2(C)C(C(C)CCCC(C)C)CCC32)C1 (stereo not shown) [Lipidoid 81-OCholB]
GFP positive (GFP^+) cells (HeLa-DsRed cells [1]; [4]): 40.9% | GFP positive (GFP^+) cells (HeLa-DsRed cells [1]; [5]): 87.4% | GFP positive (GFP^+) cells (HeLa-DsRed cells [1]; [6]): 91.5% | mean fluorescence intensity of treated cells (HeLa-DsRed cells [1]): much more efficient than others

CCN(CC)CCN(CCC(=O)OCCSSCCNC(=O)OC1CCC2(C)C(=CCC3C2CCC2(C)C(C(C)CCCC(C)C)CCC32)C1)CCC(=O)OCCSSCCNC(=O)OC1CCC2(C)C(=CCC3C2CCC2(C)C(C(C)CCCC(C)C)CCC32)C1 (stereo not shown) [Lipidoid 75-OCholB]
GFP positive (GFP^+) cells (HeLa-DsRed cells [1]; [5]): 42.3% | GFP positive (GFP^+) cells (HeLa-DsRed cells [1]; [6]): 93.1% | cell morphology (bright field images) vs untreated cells (HeLa-DsRed cells [1]): no evident morphological change | mean fluorescence intensity of treated cells (HeLa-DsRed cells [1]): much more efficient than others | green fluorescence signals (fluorescent images) (HeLa-DsRed cells [1]): Strong green fluorescence signals | cell viability (HeLa-DsRed cells [2]; [7]): 95.5% | cell viability (HeLa-DsRed cells [2]; [8]): 91.8% | cell viability (HeLa-DsRed cells [2]; [9]): 83.1% | cell morphology changes (HeLa-DsRed cells [2]): less affected | internalization efficiency with endocytosis inhibitors (HeLa-DsRed cells [3]): significantly suppressed by sucrose and dynasore

CC(C)CCCC(C)C1CCC2C3CC=C4CC(OC(=O)NCCSSCCOC(=O)CCN(C)CCN(CCN(C)CCC(=O)OCCSSCCNC(=O)OC5CCC6(C)C(=CCC7C6CCC6(C)C(C(C)CCCC(C)C)CCC76)C5)CCN(C)CCC(=O)OCCSSCCNC(=O)OC5CCC6(C)C(=CCC7C6CCC6(C)C(C(C)CCCC(C)C)CCC76)C5)CCC4(C)C3CCC12C (stereo not shown) [Lipidoid 304-OCholB]
GFP positive (GFP^+) cells (HeLa-DsRed cells [1]; [6]): 48.8%

CC(C)CCCC(C)C1CCC2C3CC=C4CC(OC(=O)NCCSSCCOC(=O)CCN(CCC(=O)OCCSSCCNC(=O)OC5CCC6(C)C(=CCC7C6CCC6(C)C(C(C)CCCC(C)C)CCC76)C5)CCN5CCCC5)CCC4(C)C3CCC12C (stereo not shown) [Lipidoid 76-OCholB]
GFP positive (GFP^+) cells (HeLa-DsRed cells [1]; [4]): 66.4% | GFP positive (GFP^+) cells (HeLa-DsRed cells [1]; [5]): 96.3% | GFP positive (GFP^+) cells (HeLa-DsRed cells [1]; [6]): 98.7% | cell morphology (bright field images) vs untreated cells (HeLa-DsRed cells [1]): no evident morphological change | mean fluorescence intensity of treated cells (HeLa-DsRed cells [1]): much more efficient than others | green fluorescence signals (fluorescent images) (HeLa-DsRed cells [1]): Strong green fluorescence signals | cell viability (HeLa-DsRed cells [2]; [7]): 97.8% | cell viability (HeLa-DsRed cells [2]; [8]): 98.2% | cell viability (HeLa-DsRed cells [2]; [9]): 97.2% | cell morphology changes (HeLa-DsRed cells [2]): less affected | internalization efficiency with endocytosis inhibitors (HeLa-DsRed cells [3]): significantly suppressed by sucrose and dynasore
